The test system of test [1] is SR (NPM-ALK) cells. In words: Growth inhibition IC50 in ALCL SR cells (CCK8/WST, 72 hours). The class given is cell-based. Conditions: SR cells, WST.
Experimental: SR (NPM-ALK) and NCI-H2228 (EML4-ALK, V3) cells were purchased from ATCC. […] All Cells were cultured in RPMI1640 medium with 10% FBS and Penicillin-Streptomycin in 37° C. incubator with 5% CO2.
Cells were seeded at specific density in 96 well plates one day before treatment. […] Viable cells were measured via CCK8 reagent and IC50s were calculated via Prism Graphad. Experiments were repeated at least three times.
Test [2] has as its target T1, ALK protein in H3122 (EML4-ALK) cells (Homo sapiens, UniProt Q9UM73).
T1 construct: EML4 (Echinoderm microtubule-associated protein-like 4, Q9HC35) fusion partner, variant 1; host or cells: NCI-H3122 lung adenocarcinoma cells; the other entry of the earlier key: EML4 (Q9HC35, Echinoderm microtubule-associated protein-like 4)
In words: Western blot of ALK protein level (degradation, DC50), ALK phosphorylation and downstream signaling in H3122 cells. It counts as cell-based. Conditions: for DC50: ALK protein degradation in H3122 cells; for phosphorylation of AKT and ERK / ALK protein level / degradation: H3122 cells, western blot; for ALK protein level / degradation: up to 500 nM.
Experimental: Cancer cells were seeded in 1 ml RPMI1640 medium in 24-well plate at the density of 3×10^5 or 1.5×10^5 cells/ml. […] Then cells were washed twice with PBS and lyzed in RIPA lysis buffer with Halt Proteinase and Phosphotase inhibitor. Equal amount of proteins were loaded to run SDS-PAGE gels after denature. The gels were blotted to PVDF membrane. After incubating with first and secondary antibodies, the images were developed using SuperSignal West Pico Chemiluminescent Substrate.
DC50 (concentration required to degrade protein by half) were calculated based on the intensity from western blot, and data were analyzed via Prism GraphPad with non-linear regression.

Where [3] appears, read: Alectinib based ALK PROTAD compounds (Table 4).
Where [4] appears, read: 72 h, Brigatinib-based PROTAD molecules (Table 3).

T1 sequence (Q9UM73 with tags, fused parts or gaps): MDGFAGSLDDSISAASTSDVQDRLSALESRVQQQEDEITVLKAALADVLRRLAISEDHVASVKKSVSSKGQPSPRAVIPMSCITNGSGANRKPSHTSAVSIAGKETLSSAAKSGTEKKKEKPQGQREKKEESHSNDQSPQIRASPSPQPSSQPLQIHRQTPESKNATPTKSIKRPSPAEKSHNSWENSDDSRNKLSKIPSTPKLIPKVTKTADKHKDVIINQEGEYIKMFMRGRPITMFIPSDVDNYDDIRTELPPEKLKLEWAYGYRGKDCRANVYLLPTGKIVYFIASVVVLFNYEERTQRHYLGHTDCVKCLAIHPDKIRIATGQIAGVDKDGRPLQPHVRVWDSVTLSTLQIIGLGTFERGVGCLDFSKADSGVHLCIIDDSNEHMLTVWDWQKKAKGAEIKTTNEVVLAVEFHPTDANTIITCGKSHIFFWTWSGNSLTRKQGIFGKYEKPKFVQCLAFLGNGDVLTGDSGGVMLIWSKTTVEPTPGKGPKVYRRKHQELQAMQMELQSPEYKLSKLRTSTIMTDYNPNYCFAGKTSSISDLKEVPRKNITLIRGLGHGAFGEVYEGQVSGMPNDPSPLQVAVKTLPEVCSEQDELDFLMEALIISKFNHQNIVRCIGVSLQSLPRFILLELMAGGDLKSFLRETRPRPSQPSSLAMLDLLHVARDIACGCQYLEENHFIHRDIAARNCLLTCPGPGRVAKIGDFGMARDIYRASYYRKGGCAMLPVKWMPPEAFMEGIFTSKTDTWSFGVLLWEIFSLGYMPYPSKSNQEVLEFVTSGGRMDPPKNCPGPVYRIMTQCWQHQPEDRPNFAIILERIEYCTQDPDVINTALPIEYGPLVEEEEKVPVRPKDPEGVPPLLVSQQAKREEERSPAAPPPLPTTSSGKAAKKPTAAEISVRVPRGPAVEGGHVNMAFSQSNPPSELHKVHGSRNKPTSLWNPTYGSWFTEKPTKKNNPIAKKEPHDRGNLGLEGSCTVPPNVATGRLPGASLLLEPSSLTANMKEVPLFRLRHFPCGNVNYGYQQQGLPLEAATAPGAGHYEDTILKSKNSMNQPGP

Broadly, the IC50 is the concentration needed to halve the response being measured. Low values mean higher potency, high ones lower potency. What is called DC50 is the midpoint of the concentration-degradation curve. A low value points to a more potent degrader. The molecule `CCc1cc2c(cc1N1CCN(C(=O)CCOCCOCCOCCOCCNc3cccc4c3C(=O)N(C3CCC(=O)NC3=O)C4=O)CC1)C(C)(C)c1[nH]c3cc(C#N)ccc3c1C2=O` (stereo not drawn) [SIAIS164014, 8-(4-(1-((2-(2,6-dioxopiperidin-3-yl)-1,3-dioxoisoindolin-4-yl)amino)-3,6,9,12-tetraoxapentadecan-15-oyl)piperazin-1-yl)-9-ethyl-6,6-dimethyl-11-oxo-6,11-dihydro-5H-benzo[b]carbazole-3-carbonitrile] displayed a concentration for half-maximal inhibition (IC50) in test [1] (setting [3]) of 81 nM. In test [2], this molecule had a DC50 of 100 to 500 nM.
In test [1] (setting [3]), `CCc1cc2c(cc1N1CCN(C(=O)CCCNc3cccc4c3C(=O)N(C3CCC(=O)NC3=O)C4=O)CC1)C(C)(C)c1[nH]c3cc(C#N)ccc3c1C2=O` (stereo not drawn) [SIAIS164024, 8-(4-(4-((2-(2,6-dioxopiperidin-3-yl)-1,3-dioxoisoindolin-4-yl)amino)butanoyl)piperazin-1-yl)-9-ethyl-6,6-dimethyl-11-oxo-6,11-dihydro-5H-benzo[b]carbazole-3-carbonitrile] came in with an IC50 of 35.8 nM. In addition, in test [2], the DC50 fell in the range of 1 to 10 nM; the “phosphorylation of AKT and ERK” value is listed as “inhibited”; the “ALK protein level / degradation” value is “reduced the protein level of ALK protein”.
As to `CCc1cc2c(cc1N1CCN(C(=O)CCCCCNc3cccc4c3C(=O)N(C3CCC(=O)NC3=O)C4=O)CC1)C(C)(C)c1[nH]c3cc(C#N)ccc3c1C2=O` (stereo not drawn) [SIAIS164026, 8-(4-(6-((2-(2,6-dioxopiperidin-3-yl)-1,3-dioxoisoindolin-4-yl)amino)hexanoyl)piperazin-1-yl)-9-ethyl-6,6-dimethyl-11-oxo-6,11-dihydro-5H-benzo[b]carbazole-3-carbonitrile], it took 148 nM to reach half-maximal inhibition in test [1] (setting [3]) (IC50). In addition, in test [2], the DC50 is 1 to 10 nM; the “phosphorylation of AKT and ERK” value is “inhibited”; the “ALK protein level / degradation” value is given as “reduced the protein level of ALK protein”.
In test [1] (setting [3]), `CCc1cc2c(cc1N1CCN(C(=O)CCOCCOCCC(=O)N[C@H](C(=O)N3C[C@H](O)C[C@H]3C(=O)NCc3ccc(-c4scnc4C)cc3)C(C)(C)C)CC1)C(C)(C)c1[nH]c3cc(C#N)ccc3c1C2=O` [SIAIS164036, (2S,4R)-1-((S)-2-(3-(2-(3-(4-(3-cyano-9-ethyl-6,6-dimethyl-11-oxo-6,11-dihydro-5H-benzo[b]carbazol-8-yl)piperazin-1-yl)-3-oxopropoxy)ethoxy)propanamido)-3,3-dimethylbutanoyl)-4-hydroxy-N-(4-(4-methylthiazol-5-yl)benzyl)pyrrolidine-2-carboxamide] returned a half-maximal inhibitory concentration (IC50) of 132 nM. This molecule also returned a half-maximal degradation concentration (DC50) in test [2] of 20 to 100 nM.
With `CCc1cc2c(cc1N1CCN(C(=O)CCCC(=O)N[C@H](C(=O)N3C[C@H](O)C[C@H]3C(=O)NCc3ccc(-c4scnc4C)cc3)C(C)(C)C)CC1)C(C)(C)c1[nH]c3cc(C#N)ccc3c1C2=O` [SIAIS164094, (2S,4R)-1-((S)-2-(5-(4-(3-cyano-9-ethyl-6,6-dimethyl-11-oxo-6,11-dihydro-5H-benzo[b]carbazol-8-yl)piperazin-1-yl)-5-oxopentanamido)-3,3-dimethylbutanoyl)-4-hydroxy-N-(4-(4-methylthiazol-5-yl)benzyl)pyrrolidine-2-carboxamide], inhibition in test [1] (setting [3]) was half-maximal at 124 nM (IC50). For the same molecule, the 50% degradation concentration (DC50) in test [2] is 20 to 100 nM.
`CCc1cc2c(cc1N1CCN(C(=O)CCCc3cn(CCCC(=O)N[C@H](C(=O)N4C[C@H](O)C[C@H]4C(=O)NCc4ccc(-c5scnc5C)cc4)C(C)(C)C)nn3)CC1)C(C)(C)c1[nH]c3cc(C#N)ccc3c1C2=O` [SIAIS164155, (2S,4R)-1-((S)-2-(4-(4-(4-(4-(3-cyano-9-ethyl-6,6-dimethyl-11-oxo-6,11-dihydro-5H-benzo[b]carbazol-8-yl)piperazin-1-yl)-4-oxobutyl)-1H-1,2,3-triazol-1-yl)butanamido)-3,3-dimethylbutanoyl)-4-hydroxy-N-(4-(4-methylthiazol-5-yl)benzyl)pyrrolidine-2-carboxamide]: the IC50 in test [1] (setting [3]) came to 104 nM. The molecule also returned a DC50 in test [2] of 10 to 50 nM.
In test [1] (setting [4]), `COc1cc(N2CCC(NC(=O)CCC(=O)NCCNc3cccc4c3C(=O)N(C3CCC(=O)NC3=O)C4=O)CC2)ccc1Nc1ncc(Cl)c(Nc2ccccc2P(C)(C)=O)n1` (stereo not drawn) [SIAIS164157, N1-(1-(4-((5-chloro-4-((2-(dimethylphosphoryl)phenyl)amino)pyrimidin-2-yl)amino)-3-methoxyphenyl)piperidin-4-yl)-N4-(2-((2-(2,6-dioxopiperidin-3-yl)-1,3-dioxoisoindolin-4-yl)amino)ethyl)succinamide] registered an IC50 of 15.7 ± 15 nM. Also, the DC50 in test [2] was in the range of 1 to 50 nM.
Taken in the same sequence, the figures for `COc1cc(N2CCN(C(=O)CCOCCOCCC(=O)N[C@H](C(=O)N3C[C@H](O)C[C@H]3C(=O)NCc3ccc(-c4scnc4C)cc3)C(C)(C)C)CC2)ccc1Nc1ncc(Cl)c(Nc2ccccc2P(C)(C)=O)n1` [SIAIS197079, (2S,4R)-1-((S)-2-(3-(2-(3-(4-(4-((5-chloro-4-((2-(dimethylphosphoryl)phenyl)amino)pyrimidin-2-yl)amino)-3-methoxyphenyl)piperazin-1-yl)-3-oxopropoxy)ethoxy)propanamido)-3,3-dimethylbutanoyl)-4-hydroxy-N-(4-(4-methylthiazol-5-yl)benzyl)pyrrolidine-2-carboxamide] were 15.9 ± 8.5 nM and 50 to 500 nM.
In the case of `COc1cc(N2CCN(C(=O)CCNc3cccc4c3C(=O)N(C3CCC(=O)NC3=O)C4=O)CC2)ccc1Nc1ncc(Cl)c(Nc2ccccc2P(C)(C)=O)n1` (stereo not drawn) [SIAIS1197057, 4-((3-(4-(4-((5-chloro-4-((2-(dimethylphosphoryl)phenyl)amino)pyrimidin-2-yl)amino)-3-methoxyphenyl)piperazin-1-yl)-3-oxopropyl)amino)-2-(2,6-dioxopiperidin-3-yl)isoindoline-1,3-dione], the midpoint of inhibition in test [1] (setting [4]), the IC50, lay at 17.7 ± 9.6 nM. Also, the 50% degradation concentration (DC50) in test [2] was in the range of 50 to 500 nM.
Regarding `COc1cc(N2CCN(C(=O)CCCNc3cccc4c3C(=O)N(C3CCC(=O)NC3=O)C4=O)CC2)ccc1Nc1ncc(Cl)c(Nc2ccccc2P(C)(C)=O)n1` (stereo not drawn) [SIAIS1197059, 4-((4-(4-(4-((5-chloro-4-((2-(dimethylphosphoryl)phenyl)amino)pyrimidin-2-yl)amino)-3-methoxyphenyl)piperazin-1-yl)-4-oxobutyl)amino)-2-(2,6-dioxopiperidin-3-yl)isoindoline-1,3-dione], the midpoint of inhibition in test [1] (setting [4]), the IC50, lay at 10.7 ± 6.2 nM. The molecule further had a half-maximal degradation concentration (DC50) in test [2] of 1 to 50 nM.
For `COc1cc(N2CCN(C(=O)CCCCNc3cccc4c3C(=O)N(C3CCC(=O)NC3=O)C4=O)CC2)ccc1Nc1ncc(Cl)c(Nc2ccccc2P(C)(C)=O)n1` (stereo not drawn) [SIAIS1197061, 4-((5-(4-(4-((5-chloro-4-((2-(dimethylphosphoryl)phenyl)amino)pyrimidin-2-yl)amino)-3-methoxyphenyl)piperazin-1-yl)-5-oxopentyl)amino)-2-(2,6-dioxopiperidin-3-yl)isoindoline-1,3-dione], in that order: 8 ± 4.4 nM and 50 to 500 nM.
Taken in the same sequence, the figures for `COc1cc(N2CCN(C(=O)CCCCCNc3cccc4c3C(=O)N(C3CCC(=O)NC3=O)C4=O)CC2)ccc1Nc1ncc(Cl)c(Nc2ccccc2P(C)(C)=O)n1` (stereo not drawn) [SIAIS1197063, 4-((6-(4-(4-((5-chloro-4-((2-(dimethylphosphoryl)phenyl)amino)pyrimidin-2-yl)amino)-3-methoxyphenyl)piperazin-1-yl)-6-oxohexyl)amino)-2-(2,6-dioxopiperidin-3-yl)isoindoline-1,3-dione] were 14.1 ± 7.3 nM and 50 to 500 nM.
Taken in the same sequence, the figures for `COc1cc(N2CCN(C(=O)CCOCCNc3cccc4c3C(=O)N(C3CCC(=O)NC3=O)C4=O)CC2)ccc1Nc1ncc(Cl)c(Nc2ccccc2P(C)(C)=O)n1` (stereo not drawn) [SIAIS1197065, 4-((2-(3-(4-(4-((5-chloro-4-((2-(dimethylphosphoryl)phenyl)amino)pyrimidin-2-yl)amino)-3-methoxyphenyl)piperazin-1-yl)-3-oxopropoxy)ethyl)amino)-2-(2,6-dioxopiperidin-3-yl)isoindoline-1,3-dione] were 20.7 ± 14.9 nM and 100 to 500 nM.
As to `COc1cc(N2CCN(C(=O)CCOCCOCCNc3cccc4c3C(=O)N(C3CCC(=O)NC3=O)C4=O)CC2)ccc1Nc1ncc(Cl)c(Nc2ccccc2P(C)(C)=O)n1` (stereo not drawn) [SIAIS1197067, 4-((2-(2-(3-(4-(4-((5-chloro-4-((2-(dimethylphosphoryl)phenyl)amino)pyrimidin-2-yl)amino)-3-methoxyphenyl)piperazin-1-yl)-3-oxopropoxy)ethoxy)ethyl)amino)-2-(2,6-dioxopiperidin-3-yl)isoindoline-1,3-dione], in test [1] (setting [4]), the IC50 is 16.1 ± 6.1 nM. For the same molecule, the half-maximal degradation concentration (DC50) in test [2] fell in the range of 100 to 500 nM.
For `COc1cc(N2CCN(C(=O)CCOCCOCCOCCNc3cccc4c3C(=O)N(C3CCC(=O)NC3=O)C4=O)CC2)ccc1Nc1ncc(C)c(Nc2ccccc2P(C)(C)=O)n1` (stereo not drawn) [SIAIS1197069, 4-((2-(2-(2-(3-(4-(4-((4-((2-(dimethylphosphoryl)phenyl)amino)-5-methylpyrimidin-2-yl)amino)-3-methoxyphenyl)piperazin-1-yl)-3-oxopropoxy)ethoxy)ethoxy)ethyl)amino)-2-(2,6-dioxopiperidin-3-yl)isoindoline-1,3-dione], in that order: 22.3 ± 18.2 nM and 100 to 500 nM.
For `COc1cc(N2CCN(C(=O)CCOCCOCCOCCOCCOCCNc3cccc4c3C(=O)N(C3CCC(=O)NC3=O)C4=O)CC2)ccc1Nc1ncc(Cl)c(Nc2ccccc2P(C)(C)=O)n1` (stereo not drawn) [SIAIS1197073, 4-((18-(4-(4-((5-chloro-4-((2-(dimethylphosphoryl)phenyl)amino)pyrimidin-2-yl)amino)-3-methoxyphenyl)piperazin-1-yl)-18-oxo-3,6,9,12,15-pentaoxaoctadecyl)amino)-2-(2,6-dioxopiperidin-3-yl)isoindoline-1,3-dione], in that order: 34.2 ± 23.9 nM and 100 to 500 nM.
